Experimental data published in patent US20250270222A1, “AP2 ASSOCIATED KINASE 1 INHIBITORS AND USES THEREOF” (Satellos Bioscience Inc., priority 2023, published 2025).

What was measured:
[1] = molecular target: BIKE (amino acids S38-E345) (K320A, K321A) (Homo sapiens (Human), UniProt Q9NSY1, K320A/K321A); assay: BIKE pSENs assay; assay type: biochemical
Method: The recombinant proteins were independently expressed in Esherichia coli BL21(DE3) cells cultured in Luria-Bertani (LB) medium until OD600 reached 0.6-0.8, then cooled to 15° C., and supplemented with 0.5 mM isopropyl 1-thio-D-galactopyranoside (IPTG) induce protein expression 16 h. Cells were harvested and resuspended in lysis buffer (50 mM HEPES pH 7.5, 500 mM NaCl, 5 mM imidazole, 5% glycerol, 0.5 mM Tris (2-carboxyethyl) phosphine (TCEP), cOmplete Protease Inhibitor Tablet (Roche)) and lysed by microfluidics high pressure homogenizer (UH-06, Union-Biotech). Proteins were purified using Ni-Affinity chromatography (His FF column, Bestchrom) and eluted stepwise in binding buffer with 20-300 mM imidazole. Removal of the hexahistidine tag was performed at 4° C. overnight using recombinant TEV protease and reacted with BirA to obtain the corresponding biotinylated-AAK1. BIKE or GAK proteins. Further separated in the reverse Strep column (Strep-Tactin® XT, IBA). The Biotin elution sample was collected containing untagged biotinylated protein was then purified by Ion-exchange chromatography (Mono Q 10/100 GL, Cytiva) and Size-exclusion chromatography (HiLoad 16/600 Superdex 200 pg, Cytiva). The pure protein was stored in a storage buffer 50 mM HEPES (pH 7.5), 300 mM NaCl, 5% glycerol at −80° C. Protein were characterized by SDS-PAGE. LC-MS and aSEC.
BIKE protein was dissolved at 20 nM in 1× enzyme solution (50 mM HEPES pH7.5, 10 mM MgCl2, 1 mM DTT, 1% glycerol, 0.5 mM EGTA, 0.01% Briji35, 0.02% BSA) and 12.5 ul was incubated with 250 nl DMSO or 250 nl compound in DMSO at 25° C. for 15 min. The reaction was started by addition of 12.5 ul of 30 uM AQT0759 (Assayquant, CSKS-AQT0759B) and 40 uM ATP which were diluted in 1× substrate dilution buffer (50 mM HEPES pH7.5, 10 mM MgCl2. 1 mM DTT, 1% glycerol, 0.5 mM EGTA, 0.01% Briji35).

[2] = molecular target: AAK1 (amino acids T27-A365) (Homo sapiens (Human), UniProt Q2M2I8); assay: AAK1 pSENs assay; assay type: biochemical; details: for AAK1:GAK pSENs Selectivity: ratio of AAK1 pSENs activity to GAK pSENs activity; for IC50: read-out: AAK1 pSENs:EIC50
Chain of AAK1 (amino acids T27-A365) (Q2M2I8 27-365): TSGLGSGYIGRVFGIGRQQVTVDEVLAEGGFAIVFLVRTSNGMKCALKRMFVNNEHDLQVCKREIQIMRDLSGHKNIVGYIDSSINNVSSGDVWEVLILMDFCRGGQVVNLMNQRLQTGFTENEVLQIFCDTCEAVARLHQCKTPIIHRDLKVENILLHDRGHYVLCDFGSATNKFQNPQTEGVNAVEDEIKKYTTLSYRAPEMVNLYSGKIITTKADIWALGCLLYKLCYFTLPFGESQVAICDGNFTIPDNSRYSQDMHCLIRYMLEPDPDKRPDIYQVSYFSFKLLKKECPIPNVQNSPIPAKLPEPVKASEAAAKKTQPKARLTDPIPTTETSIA
Summary of the method: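 Untagged, biotinylated E. coli-expressed AAK1 at 20 nM preincubated with compound 15 min at 25° C in HEPES pH 7.5 buffer with 10 mM MgCl2 and 1 mM DTT. Reaction started with AQT0759 and ATP, added as 30 uM and 70 uM solutions in equal volume.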

[3] = molecular target: GAK (amino acids Q25-N335) (Homo sapiens (Human), UniProt O14976); assay: GAK pSENs assay; assay type: biochemical
Chain of GAK (amino acids Q25-N335) (O14976 25-335): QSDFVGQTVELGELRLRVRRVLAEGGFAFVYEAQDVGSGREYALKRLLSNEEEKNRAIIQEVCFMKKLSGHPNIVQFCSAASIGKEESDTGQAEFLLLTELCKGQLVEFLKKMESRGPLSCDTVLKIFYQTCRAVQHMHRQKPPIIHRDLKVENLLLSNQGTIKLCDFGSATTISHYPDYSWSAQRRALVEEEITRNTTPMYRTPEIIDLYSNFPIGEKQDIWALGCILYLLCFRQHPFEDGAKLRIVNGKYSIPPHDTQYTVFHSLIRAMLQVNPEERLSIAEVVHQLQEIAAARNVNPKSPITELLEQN

AAK1 = AAK1 (Homo sapiens (Human), UniProt Q2M2I8); assay: pAP2M1 cell-based assay (In-Cell Western); details: Hela cells co-transfected with AP2M1 and AAK1, 3 hr treatment, Phospho-AP2M1 (Thr156)
Chain of AAK1 (Q2M2I8 whole entry): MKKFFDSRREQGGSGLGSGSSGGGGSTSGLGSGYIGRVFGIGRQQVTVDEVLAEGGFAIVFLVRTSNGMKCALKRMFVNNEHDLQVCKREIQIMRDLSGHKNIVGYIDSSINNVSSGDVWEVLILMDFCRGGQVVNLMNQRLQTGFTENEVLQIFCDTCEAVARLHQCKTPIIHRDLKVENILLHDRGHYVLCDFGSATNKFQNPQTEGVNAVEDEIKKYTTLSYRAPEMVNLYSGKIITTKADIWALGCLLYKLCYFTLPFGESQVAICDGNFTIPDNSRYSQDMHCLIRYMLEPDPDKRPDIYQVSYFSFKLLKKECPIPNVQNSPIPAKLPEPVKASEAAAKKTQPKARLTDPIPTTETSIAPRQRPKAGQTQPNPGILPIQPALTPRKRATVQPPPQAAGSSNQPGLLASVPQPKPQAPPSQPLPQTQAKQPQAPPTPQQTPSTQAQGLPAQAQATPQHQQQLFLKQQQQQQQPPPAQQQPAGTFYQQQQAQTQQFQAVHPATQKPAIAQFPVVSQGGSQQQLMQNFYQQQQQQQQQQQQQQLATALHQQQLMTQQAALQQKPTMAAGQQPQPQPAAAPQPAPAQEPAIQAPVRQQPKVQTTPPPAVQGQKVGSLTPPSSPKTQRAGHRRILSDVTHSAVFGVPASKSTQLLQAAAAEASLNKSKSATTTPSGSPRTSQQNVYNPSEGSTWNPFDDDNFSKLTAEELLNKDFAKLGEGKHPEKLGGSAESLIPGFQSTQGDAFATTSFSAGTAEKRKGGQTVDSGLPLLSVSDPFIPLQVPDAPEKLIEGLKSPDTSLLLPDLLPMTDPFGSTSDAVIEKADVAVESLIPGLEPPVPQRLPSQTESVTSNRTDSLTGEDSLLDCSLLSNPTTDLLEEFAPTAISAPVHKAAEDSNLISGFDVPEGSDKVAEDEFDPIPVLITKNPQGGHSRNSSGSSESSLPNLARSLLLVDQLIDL
From the text: pAP2M1 Cell-Based Assay (In-Cell Western):
The plate was read on Licor Odyssey CLx imaging system (LICOR) to acquire fluorescence intensity at 700 channel and 800 channel.
Data analysis: Fluorescence intensity at 700 channel served as internal standard and 800 channel were normalized with 700 channel.

Chain of BIKE (amino acids S38-E345) (K320A, K321A) (Q9NSY1 38-345 K320A/K321A): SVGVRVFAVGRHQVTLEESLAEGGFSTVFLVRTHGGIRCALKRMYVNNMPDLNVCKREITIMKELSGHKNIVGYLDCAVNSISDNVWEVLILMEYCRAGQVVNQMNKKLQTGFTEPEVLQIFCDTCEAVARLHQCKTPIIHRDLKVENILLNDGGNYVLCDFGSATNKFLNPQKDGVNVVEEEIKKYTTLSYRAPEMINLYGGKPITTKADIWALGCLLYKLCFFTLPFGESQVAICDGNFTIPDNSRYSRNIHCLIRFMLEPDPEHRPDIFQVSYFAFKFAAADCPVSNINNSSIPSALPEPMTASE

IC50 [1] [nM]	AAK1:GAK pSENs Selectivity [2]	IC50 [2] [nM]	IC50 [3] [nM]	IC50 (AAK1) [nM]	Compound
1 to 50	B (B: 0.016-0.075)	1 to 50	51 to 150	1 to 50	C[C@]1(OC(=O)N2CCN(c3ccn4ncc(-c5cccnc5OC5CC5)c4n3)CC2)CCNC1 (single isomer, unassigned) [Compound I-13]
> 1500	D (D: 0.16-1.00)	> 1500	> 1500	> 1500	O=C1C[C@H](OC(=O)N2CCN(c3ccn4ncc(-c5cccnc5OC5CNC5)c4n3)CC2)CN1 [Compound I-43, [(3S)-5-Oxopyrrolidin-3-yl]4-[3-[2-(azetidin-3-yloxy)-3-pyridyl]pyrazolo[1,5-a]pyrimidin-5-yl]piperazine-1-carboxylate]
> 1500	C (C: 0.076-0.15)	–	> 1500	–	CN1C[C@@H](OC(=O)N2CCN(c3nc4c(-c5cccnc5OC5CCCCC5)cnn4cc3F)CC2)CC1=O [Compound I-123, [(3S)-1-methyl-5-oxo-pyrrolidin-3-yl]-4-[3-[2-(cyclohexoxy)-3-pyridyl]-6-fluoro-pyrazolo[1,5-a]pyrimidin-5-yl]piperazine-1-carboxylate]
